The values that follow come from ChEMBL document CHEMBL1138985, “Discovery of potent, selective, and orally bioavailable pyridone-based dipeptidyl peptidase-4 inhibitors” (Bioorg Med Chem Lett, 2006).

One series concerns the target Dipeptidyl peptidase 8 (Homo sapiens, UniProt Q6V1X1).
The target of the next series is Dipeptidyl peptidase 9 (Homo sapiens, UniProt Q86TI2).
Another series deals with Dipeptidyl peptidase 2 (Homo sapiens, UniProt Q9UHL4). Description: Inhibition of QPP.
The nature of series [1]: Half life in rat at 1 mg/kg, iv or 2 mg/kg, po. The class given is ADME, organism-based. Conditions: in vivo.
Series [2] can be described thus: Plasma clearance in rat at 1 mg/kg, iv or 2 mg/kg, po. It counts as ADME, organism-based.
The nature of series [3]: Bioavailability in rat at 1 mg/kg, iv or 2 mg/kg, po. Conditions: in vivo. The class given is ADME, organism-based.
Series [4] relates to Mus musculus. Kind of series: Reduction of glucose excursion at 10 mg/kg, po in mouse by Oral Glucose Tolerance Test. It counts as functional. Details: scale not given: the % may be the effect or the level left.
Series [5] in a line: Plasma clearance in rhesus monkey at 1 mg/kg, iv or 2 mg/kg, po. The class given is ADME, organism-based, Macaca mulatta.
A short description of series [6]: Half life in dog at 1 mg/kg, iv or 2 mg/kg, po. The class given is ADME, organism-based, Canis lupus familiaris. Conditions: in vivo.
The subject of series [7] is Mus musculus. Kind of series: Reduction of glucose excursion at 1 mg/kg, po in mouse by Oral Glucose Tolerance Test. The class given is functional. Details: scale not given: the % may be the effect or the level left.
Series [8] can be described thus: Bioavailability in dog at 1 mg/kg, iv or 2 mg/kg, po. Particulars: in vivo. It counts as ADME, organism-based, Canis lupus familiaris.
Series [9] is described as follows: Plasma clearance in dog at 1 mg/kg, iv or 2 mg/kg, po. It counts as ADME, organism-based, Canis lupus familiaris.
Series [10] in a line: Bioavailability in rhesus monkey at 1 mg/kg, iv or 2 mg/kg, po. The class given is ADME, organism-based, Macaca mulatta. Conditions: in vivo.
Series [11] in a line: Half life in rhesus monkey at 1 mg/kg, iv or 2 mg/kg, po. It counts as ADME, organism-based, Macaca mulatta. Particulars: in vivo.
Series [12] deals with Voltage-gated inwardly rectifying potassium channel KCNH2 (Homo sapiens, UniProt Q12809). Description: Binding to human ERG potassium channel.
Sequence of Voltage-gated inwardly rectifying potassium channel KCNH2 (Q12809 whole entry): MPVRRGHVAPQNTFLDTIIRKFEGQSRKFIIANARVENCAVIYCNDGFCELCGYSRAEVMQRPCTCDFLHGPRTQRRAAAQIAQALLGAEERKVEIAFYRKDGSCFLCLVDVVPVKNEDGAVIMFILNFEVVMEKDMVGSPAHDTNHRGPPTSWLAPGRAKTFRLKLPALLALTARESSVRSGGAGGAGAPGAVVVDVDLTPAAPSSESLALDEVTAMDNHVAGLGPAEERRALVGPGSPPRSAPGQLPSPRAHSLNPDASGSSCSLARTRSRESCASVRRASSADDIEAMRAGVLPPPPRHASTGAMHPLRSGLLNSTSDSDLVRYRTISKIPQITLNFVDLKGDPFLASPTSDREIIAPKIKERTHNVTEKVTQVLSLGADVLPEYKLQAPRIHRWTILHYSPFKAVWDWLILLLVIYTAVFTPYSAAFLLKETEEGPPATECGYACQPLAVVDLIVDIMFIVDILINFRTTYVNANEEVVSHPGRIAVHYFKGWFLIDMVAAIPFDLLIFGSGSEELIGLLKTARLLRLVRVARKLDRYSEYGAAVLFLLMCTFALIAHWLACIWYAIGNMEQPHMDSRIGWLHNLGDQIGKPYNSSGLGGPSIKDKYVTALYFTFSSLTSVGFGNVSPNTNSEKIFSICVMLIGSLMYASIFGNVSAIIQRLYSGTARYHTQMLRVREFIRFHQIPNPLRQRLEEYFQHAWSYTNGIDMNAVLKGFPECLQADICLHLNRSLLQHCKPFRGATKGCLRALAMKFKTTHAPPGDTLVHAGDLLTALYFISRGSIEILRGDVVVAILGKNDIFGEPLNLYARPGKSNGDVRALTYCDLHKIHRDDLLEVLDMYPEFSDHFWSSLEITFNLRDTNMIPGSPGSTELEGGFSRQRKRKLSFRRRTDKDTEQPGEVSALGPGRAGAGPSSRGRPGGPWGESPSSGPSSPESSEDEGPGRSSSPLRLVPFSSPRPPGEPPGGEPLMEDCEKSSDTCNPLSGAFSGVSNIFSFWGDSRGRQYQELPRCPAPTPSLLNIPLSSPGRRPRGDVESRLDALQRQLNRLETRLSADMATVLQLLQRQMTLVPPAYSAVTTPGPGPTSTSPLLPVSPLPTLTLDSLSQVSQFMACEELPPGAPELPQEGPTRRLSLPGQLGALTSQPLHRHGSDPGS

A value given as a limit tells only on which side of the number the result lay.

Sequence of Dipeptidyl peptidase 8 (Q6V1X1 whole entry): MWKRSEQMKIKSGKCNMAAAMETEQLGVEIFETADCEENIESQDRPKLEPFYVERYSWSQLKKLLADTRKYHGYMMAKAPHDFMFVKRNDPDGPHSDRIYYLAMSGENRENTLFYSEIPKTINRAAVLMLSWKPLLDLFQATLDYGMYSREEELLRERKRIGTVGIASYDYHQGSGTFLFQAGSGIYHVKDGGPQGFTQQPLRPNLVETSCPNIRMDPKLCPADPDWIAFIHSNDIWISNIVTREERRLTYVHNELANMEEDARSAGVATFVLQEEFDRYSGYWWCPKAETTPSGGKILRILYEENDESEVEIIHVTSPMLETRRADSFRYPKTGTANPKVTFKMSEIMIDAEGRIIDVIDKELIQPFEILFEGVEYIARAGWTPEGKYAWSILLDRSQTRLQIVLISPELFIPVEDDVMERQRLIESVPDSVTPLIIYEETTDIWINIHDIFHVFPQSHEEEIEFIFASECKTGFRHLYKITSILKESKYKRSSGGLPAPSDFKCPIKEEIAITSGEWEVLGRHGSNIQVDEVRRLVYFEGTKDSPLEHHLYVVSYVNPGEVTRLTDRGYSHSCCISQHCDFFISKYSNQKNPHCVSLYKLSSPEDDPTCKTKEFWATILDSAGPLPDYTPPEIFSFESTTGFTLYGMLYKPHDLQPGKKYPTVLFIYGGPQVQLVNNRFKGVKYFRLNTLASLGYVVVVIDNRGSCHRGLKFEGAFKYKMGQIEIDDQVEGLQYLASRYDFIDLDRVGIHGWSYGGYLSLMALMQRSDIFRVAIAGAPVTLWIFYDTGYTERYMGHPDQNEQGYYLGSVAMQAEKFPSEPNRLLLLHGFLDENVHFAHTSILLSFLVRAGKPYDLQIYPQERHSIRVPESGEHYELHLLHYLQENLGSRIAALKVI
Sequence of Dipeptidyl peptidase 9 (Q86TI2 whole entry): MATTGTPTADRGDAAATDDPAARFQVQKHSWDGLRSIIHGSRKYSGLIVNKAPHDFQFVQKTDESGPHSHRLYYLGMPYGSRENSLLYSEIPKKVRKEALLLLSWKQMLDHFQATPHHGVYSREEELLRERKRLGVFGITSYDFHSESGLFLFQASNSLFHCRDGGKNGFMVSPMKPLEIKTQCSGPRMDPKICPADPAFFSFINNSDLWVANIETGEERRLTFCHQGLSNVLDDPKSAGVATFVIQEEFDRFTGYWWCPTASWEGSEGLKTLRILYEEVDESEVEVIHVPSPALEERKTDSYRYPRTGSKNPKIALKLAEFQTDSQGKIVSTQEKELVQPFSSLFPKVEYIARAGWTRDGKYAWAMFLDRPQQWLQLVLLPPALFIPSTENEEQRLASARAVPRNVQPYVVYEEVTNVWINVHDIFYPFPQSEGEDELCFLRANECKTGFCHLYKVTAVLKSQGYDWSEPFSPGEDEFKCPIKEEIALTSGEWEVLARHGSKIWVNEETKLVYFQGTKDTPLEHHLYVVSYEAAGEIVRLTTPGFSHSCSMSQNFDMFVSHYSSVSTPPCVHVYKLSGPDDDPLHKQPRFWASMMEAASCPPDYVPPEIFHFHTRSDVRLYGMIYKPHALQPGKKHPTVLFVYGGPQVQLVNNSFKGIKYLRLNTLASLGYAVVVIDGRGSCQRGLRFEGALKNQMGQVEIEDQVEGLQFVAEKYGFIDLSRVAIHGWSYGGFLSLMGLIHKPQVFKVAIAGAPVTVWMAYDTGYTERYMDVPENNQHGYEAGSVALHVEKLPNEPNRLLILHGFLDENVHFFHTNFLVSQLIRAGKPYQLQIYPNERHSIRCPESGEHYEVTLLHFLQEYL

A word on the IC50: it is the concentration that inhibits the measured activity by half. As to `C[C@@H](c1ccc(-c2ccc(=O)n(C)c2)cc1)[C@H](N)C(=O)N1CCC(F)CC1`, the IC50 against Dipeptidyl peptidase 8 and against Dipeptidyl peptidase 9 was more than 100 µM in each case.
Usually half-life stands for the time in which the quantity being followed falls by half. In general, bioavailability refers to the share of a dose that reaches the circulation, judged against a reference dose that is usually intravenous. As to `C[C@@H](c1ccc(-c2cn(C)c(=O)cc2CO)cc1)[C@H](N)C(=O)N1CC[C@H](F)C1.O=C(O)C(F)(F)F`, the IC50 against Dipeptidyl peptidase 8, at Dipeptidyl peptidase 2 and against Dipeptidyl peptidase 9 was more than 100 µM in each case. In addition, in series [1], the half-life is 156 min. Besides, the clearance in series [2] turned out to be 68.1 mL/min/kg. Further, the bioavailability in [3] came out at 3%.
In the case of `C[C@@H](c1ccc(-c2cn(C)c(=O)c(Cl)c2F)cc1)[C@H](N)C(=O)N1CC[C@H](F)C1`, the IC50 against Dipeptidyl peptidase 8 and on Dipeptidyl peptidase 9 was more than 100 µM each time.
As to `Cc1c(-c2ccc([C@H](C)[C@H](N)C(=O)N3CC[C@H](F)C3)cc2)cc(Br)c(=O)n1C`, the IC50 against Dipeptidyl peptidase 8 and against Dipeptidyl peptidase 9 was more than 100 µM in each case.
With `C[C@@H](c1ccc(-c2ccc(=O)n(C)c2)cc1)[C@H](N)C(=O)N1CCCC1`, the 50% inhibitory concentration (IC50) against Dipeptidyl peptidase 8 and against Dipeptidyl peptidase 9 was more than 100 µM throughout.
`C[C@@H](c1ccc(-c2cc(F)c(=O)n(C)c2)cc1)[C@H](N)C(=O)N1CC[C@H](F)C1` showed an IC50 against Dipeptidyl peptidase 9 of more than 100 µM.
On to `C[C@@H](c1ccc(-c2ccc(=O)n(C)c2F)cc1)[C@H](N)C(=O)N1CC[C@H](F)C1.O=C(O)C(F)(F)F`, for which the IC50 against Dipeptidyl peptidase 8 and against Dipeptidyl peptidase 9 was more than 100 µM throughout. In [1], this molecule showed a half-life of 66 min. Moreover, in series [2], the clearance was found to be 11.2 mL/min/kg. The molecule further displayed a bioavailability in series [3] of 61%.
For `C[C@@H](c1ccc(-c2ccc(=O)n(-c3ccc(F)cc3)c2)cc1)[C@H](N)C(=O)N1CC[C@H](F)C1`, the IC50 against Dipeptidyl peptidase 8 and at Dipeptidyl peptidase 9 was more than 100 µM in each case.
For the molecule `Cc1c(-c2ccc([C@H](C)[C@H](N)C(=O)N3CC[C@H](F)C3)cc2)ccc(=O)n1C`, the IC50 at Dipeptidyl peptidase 8 and on Dipeptidyl peptidase 9 was more than 100 µM each time.
Consider `C[C@@H](c1ccc(-c2ccc(=O)n(C)c2)cc1)[C@H](N)C(=O)N1CC[C@H](F)C1.O=C(O)C(F)(F)F`, for which the half-inhibitory concentration (IC50) on Dipeptidyl peptidase 8 and against Dipeptidyl peptidase 9 was more than 100 µM throughout. Besides, the Activity with Mus musculus [4] is on record as 56%; in the series on Mus musculus [7] it was 33%. Moreover, the clearance in series [5] amounted to 6.7 mL/min/kg; in [2] it was 7.7 mL/min/kg; in series [9], 4.7 mL/min/kg. In addition, the results for the half-life in series [1], in series [6] and in series [11] were 84 min, 228 min and 234 min, respectively. Further, the bioavailability in series [3] was 34%; in [8], 95%; in series [10], 50%.
Take `C[C@@H](c1ccc(-c2ccc(=O)n(C)c2)cc1)[C@H](N)C(=O)N1CCC(F)(F)C1`: the IC50 on Dipeptidyl peptidase 8 and at Dipeptidyl peptidase 9 was more than 100 µM in each case.
For `CCn1cc(-c2ccc([C@H](C)[C@H](N)C(=O)N3CC[C@H](F)C3)cc2)ccc1=O`, the IC50 against Dipeptidyl peptidase 8 and against Dipeptidyl peptidase 9 was more than 100 µM in each case.
As to `C[C@@H](c1ccc(-c2ccc(=O)n(C)c2)cc1)[C@H](N)C(=O)N1CCSC1`, the IC50 against Dipeptidyl peptidase 8 and against Dipeptidyl peptidase 9 was more than 100 µM in each case.
Turning to `C[C@@H](c1ccc(-c2ccc(=O)n(C)c2)cc1)[C@H](N)C(=O)N1CC(F)C1`, the IC50 at Dipeptidyl peptidase 8 and against Dipeptidyl peptidase 9 was more than 100 µM each time.
For the molecule `COc1cc(=O)n(C)cc1-c1ccc([C@H](C)[C@H](N)C(=O)N2CC[C@H](F)C2)cc1`, the IC50 against Dipeptidyl peptidase 8 and on Dipeptidyl peptidase 9 was more than 100 µM each time.
Consider `C[C@@H](c1ccc(-c2ccc(O)nc2)cc1)[C@H](N)C(=O)N1CC[C@H](F)C1.O=C(O)C(F)(F)F`, for which the values for the 50% inhibitory concentration (IC50) (at Dipeptidyl peptidase 8; at Dipeptidyl peptidase 9; in series [12]) were more than 100 µM, more than 100 µM and 8.3 µM, respectively. For the same molecule, the half-life in series [1] is 114 min. In series [2], this molecule came in with a clearance of 35.8 mL/min/kg. Also, the bioavailability in series [3] turned out to be 10%.
With `CCOC(=O)Cn1cc(-c2ccc([C@H](C)[C@H](N)C(=O)N3CC[C@H](F)C3)cc2)ccc1=O`, the IC50 at Dipeptidyl peptidase 8 and on Dipeptidyl peptidase 9 was more than 100 µM each time.
Turning to `C[C@@H](c1ccc(-c2ccc(=O)n(CC3CC3)c2)cc1)[C@H](N)C(=O)N1CC[C@H](F)C1`, the concentration for half-maximal inhibition (IC50) on Dipeptidyl peptidase 8 and against Dipeptidyl peptidase 9 was more than 100 µM throughout.
As to `C[C@@H](c1ccc(-c2cc(Br)c(=O)n(C)c2)cc1)[C@H](N)C(=O)N1CC[C@H](F)C1`, the IC50 at Dipeptidyl peptidase 8 and at Dipeptidyl peptidase 9 was more than 100 µM throughout.
Consider `C[C@@H](c1ccc(-c2cn(C)c(=O)cc2F)cc1)[C@H](N)C(=O)N1CC[C@H](F)C1`, for which the IC50 against Dipeptidyl peptidase 8 and against Dipeptidyl peptidase 9 was more than 100 µM each time.
Take `Cc1cc(=O)n(C)cc1-c1ccc([C@H](C)[C@H](N)C(=O)N2CC[C@H](F)C2)cc1`: the IC50 at Dipeptidyl peptidase 8 and against Dipeptidyl peptidase 9 was more than 100 µM in each case.
Regarding `CCOC(=O)C(F)(F)n1cc(-c2ccc([C@H](C)[C@H](N)C(=O)N3CC[C@H](F)C3)cc2)ccc1=O`, the 50% inhibitory concentration (IC50) against Dipeptidyl peptidase 8 and against Dipeptidyl peptidase 9 was more than 100 µM throughout.
With `CCOC(=O)Nc1c(-c2ccc([C@H](C)[C@H](N)C(=O)N3CC[C@H](F)C3)cc2)cn(C)c(=O)c1F`, the IC50 on Dipeptidyl peptidase 8 is more than 100 µM.
